Consider four molecules from ChEMBL document CHEMBL3400071, “The CERT antagonist HPA-12: first practical synthesis and individual binding evaluation of the four stereoisomers” (Bioorg Med Chem, 2015).

Molecules are shown by their SMILES.

This experiment concerns the target T1, Ceramide transfer protein (Homo sapiens, UniProt Q9Y5P4).
T1 sequence (Q9Y5P4 whole entry): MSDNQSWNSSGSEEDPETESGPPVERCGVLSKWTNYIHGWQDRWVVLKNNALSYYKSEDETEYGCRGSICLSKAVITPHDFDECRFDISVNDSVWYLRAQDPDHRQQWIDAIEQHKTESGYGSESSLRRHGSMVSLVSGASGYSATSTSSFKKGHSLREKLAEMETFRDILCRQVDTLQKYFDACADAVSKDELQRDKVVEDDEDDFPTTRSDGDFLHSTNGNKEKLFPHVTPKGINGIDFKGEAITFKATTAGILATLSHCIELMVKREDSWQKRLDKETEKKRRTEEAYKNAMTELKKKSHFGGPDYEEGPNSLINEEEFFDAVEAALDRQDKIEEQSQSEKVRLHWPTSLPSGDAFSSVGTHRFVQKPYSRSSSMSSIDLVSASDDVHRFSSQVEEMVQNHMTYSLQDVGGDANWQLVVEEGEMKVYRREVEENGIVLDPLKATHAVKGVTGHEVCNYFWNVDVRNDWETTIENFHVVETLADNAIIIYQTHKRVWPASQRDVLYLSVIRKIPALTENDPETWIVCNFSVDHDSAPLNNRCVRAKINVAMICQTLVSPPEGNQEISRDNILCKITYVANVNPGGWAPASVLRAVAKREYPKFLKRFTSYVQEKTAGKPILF
Kind of experiment: Binding affinity to histidine-tagged human recombinant […] containing CERT START domain pre-incubated for 30 mins before biotinylated ceramide probe addition and measured after 18 hrs post probe addition by TR-FRET binding assay. (In general: Time-resolved FRET reads energy transfer from a long-lived donor to a nearby acceptor.)
With `CCCCCCCCCCCC(=O)N[C@@H](CO)C[C@@H](O)c1ccccc1`, the concentration for a half-maximal effect (EC50) (commonly the concentration needed to bring the measured effect to its halfway point) turned out to be 22 µM.
Under `CCCCCCCCCCCC(=O)N[C@@H](CO)C[C@H](O)c1ccccc1` stands 4 µM.
Under `CCCCCCCCCCCC(=O)N[C@H](CO)C[C@@H](O)c1ccccc1` stands 159 µM; under `CCCCCCCCCCCC(=O)N[C@H](CO)C[C@H](O)c1ccccc1`, 25 µM.
